Measured values reported in article PMC5288202, “Simultaneous inhibition of Vps34 kinase would enhance PI3Kδ inhibitor cytotoxicity in the B-cell malignancies” (Oncotarget, 2016).

How the values were obtained:
PI4KA = target: T1, PI4KA (Homo sapiens, UniProt P42356); test: ADP-Glo biochemical assay; details: 50 μM ATP, read-out: IC50 against PI4KA
T1 construct: purchased Invitrogen

PI3Kβ = target: T2, PI3Kβ (Mus musculus, UniProt Q8BTI9); test: PI3K isoforms cellular selectivity assay (AKT phosphorylation, NIH-3T3, LPA); assay type: cell-based; details: NIH-3T3 cells, LPA stimulation
T2 construct: endogenous in cells; host or cells: NIH-3T3
Method: Cells were lysed and AKT phosphorylation was determined by Western Blotting. Intensity of the bands was determined using ImageJ 1.42q (NIH, USA) and normalized to total AKT (loading control).

[1] = test system: LC3B puncta in HeLa cells; test: Immunofluorescence of LC3B puncta; assay type: cell-based; details: 16 hours
Method: HeLa cells were treated with different concentrations of inhibitors for 16 hours. For all immunofluorescence experiments, cells were fixed in -20 °C methanol for 5 minutes or 3.7% (v/v) formaldehyde in phosphate-buffered saline (PBS) for 20 minutes. For LC3B staining, cells were fixed in -20 °C methanol. For EEA1 and LAMP1 staining, cells were fixed in PBS+ formaldehyde. Cells were then permeabilized with TBSTx (0.1% Triton X-100), blocked in AbDil (TBSTx + 2% BSA + 0.1% NaN3), and probed with primary and secondary antibodies diluted in AbDil. Cells were rinsed thoroughly with TBSTx and mounted by anti-fade prolong Gold with DAPI. Images were taken using a Leica DMI4000B fluorescent microscope. All experiments were repeated at least three times). […] Cells were lysed in lysis buffer. P62, LC3B, and GAPDH antibodies were used for immunoblotting.

CMK = test: Anti-proliferative effect; assay type: cell-based; details: Homo sapiens, read-out: GI50 CMK
NOMO-1 = test: Anti-proliferative effect; assay type: cell-based; details: Homo sapiens, NOMO-1, read-out: GI50 NOMO-1
OCI-AML-2 [2] = test: Colony formation (colonogenic assay); assay type: cell-based; details: Homo sapiens, OCI-AML2
primary CLL cells = test: Growth of patient primary cells; assay type: cell-based; details: CLL cell, 72 hours, read-out: cell proliferation inhibited
Description: Peripheral blood mononuclear cells (PBMCs) from individuals with CLL were isolated by density centrifugation through Ficoll and frozen for each subject. Those subjects with low white counts whose CLL cell purity was expected to be < 85% underwent B cell isolation using RosetteSep. The protocol was approved by the Dana-Farber Harvard Cancer Center Institutional Review Board and all subjects signed written informed consent prior to participation.

[3] = test system: PI3Kδ-mediated signaling in OCI-AML-2, OCI-AML-3, MV4-11 and MEC-2 cell lines; test: PI3Kδ-mediated signaling pathway (immunoblotting); assay type: cell-based; details: all four cell lines
Description: The following antibodies were purchased from Cell Signaling Technology: Akt(#4691), Phospho-Akt(Thr308)(#4056), Phospho-Akt(Ser473)(#4060), GAPDH, GSK-3β(#9315), Phospho-GSK-3β(#9323), FoxO1(#2880), Phospho-FoxO1 (Thr24)/FoxO3a(Thr32)/FoxO4(Thr28)(#2599), PRAS40(#2691), Phospho-PRAS40 (Thr246)(#2997), 4E-BP1(#9644), p70 S6K(#2708), Phospho-p70 S6K (Thr389)(#9234). SQSTM1/p62 (D5E2)(#8025), LC3B(#12513). PARP(#9532), Caspase-3(#9665), Phospho-p44/42 MAPK (Erk1/2) (Thr202/Tyr204)(#4377), p44/42 MAPK (Erk1/2) (#4695), Phospho-NF-ΚB P65 (Ser 536)(#3033), NF-ΚB P65(#4764). Lysophosphatidic Acid (#sc-201053, Santa Cruz), Recombinant Human PDGF-BB (#220-BB, R&D), Recombinant Human C5a (Peprotech, #300-70), goat anti-IgM (#5C07615, Meridian). LC3B antibody (#3868, CST). Tubulin antibody (#8035, Santa Cruz). EEA1 antibody (#610456, BD Bioscience) and LAMP1 antibody (#24170, Abcam). Secondary antibodies, Alexa488-anti-mouse, Alexa594-anti-rabbit and Prolong gold mounting medium with DAPI were purchased from Invitrogen.

OCI-AML-2 [4] = test: Induction of apoptosis (PARP cleavage); assay type: cell-based; details: OCI-AML-2, evident at 3 μM to 10 μM
MEC-2 = test: Cell cycle analysis; assay type: cell-based; details: MEC-2, 48 h treatment
OCI-AML-2 [5] = test: Cell cycle analysis; assay type: cell-based; details: OCI-AML-2, 48 h treatment

T2 sequence (Q8BTI9 whole entry, canonical isoform): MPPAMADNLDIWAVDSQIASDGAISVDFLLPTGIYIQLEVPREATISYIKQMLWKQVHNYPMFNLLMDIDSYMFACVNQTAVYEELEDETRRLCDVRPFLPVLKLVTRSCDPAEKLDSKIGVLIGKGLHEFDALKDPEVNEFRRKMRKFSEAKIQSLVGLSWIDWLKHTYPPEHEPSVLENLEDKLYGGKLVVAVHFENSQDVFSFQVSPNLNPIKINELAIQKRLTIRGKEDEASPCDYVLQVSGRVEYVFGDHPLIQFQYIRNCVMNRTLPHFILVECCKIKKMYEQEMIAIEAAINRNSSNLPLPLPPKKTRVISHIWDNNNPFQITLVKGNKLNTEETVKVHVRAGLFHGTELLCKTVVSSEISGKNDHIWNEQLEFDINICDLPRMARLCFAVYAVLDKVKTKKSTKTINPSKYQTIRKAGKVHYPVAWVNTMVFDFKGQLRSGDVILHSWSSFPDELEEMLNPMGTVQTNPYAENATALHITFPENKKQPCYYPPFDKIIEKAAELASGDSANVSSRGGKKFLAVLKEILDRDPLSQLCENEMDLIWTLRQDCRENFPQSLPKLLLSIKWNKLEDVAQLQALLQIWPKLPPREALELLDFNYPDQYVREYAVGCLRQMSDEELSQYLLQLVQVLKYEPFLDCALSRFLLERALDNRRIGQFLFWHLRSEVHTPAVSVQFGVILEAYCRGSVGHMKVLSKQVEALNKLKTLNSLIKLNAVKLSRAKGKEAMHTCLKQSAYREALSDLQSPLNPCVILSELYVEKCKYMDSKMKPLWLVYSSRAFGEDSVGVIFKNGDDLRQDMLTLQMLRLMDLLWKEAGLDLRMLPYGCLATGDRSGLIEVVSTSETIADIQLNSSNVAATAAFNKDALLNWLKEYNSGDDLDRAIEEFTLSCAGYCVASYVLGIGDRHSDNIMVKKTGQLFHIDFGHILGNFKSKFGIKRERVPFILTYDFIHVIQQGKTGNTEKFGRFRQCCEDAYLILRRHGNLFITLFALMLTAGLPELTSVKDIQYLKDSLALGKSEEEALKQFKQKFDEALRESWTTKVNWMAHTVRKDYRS
T2 sequence (P26450 whole entry partner, canonical isoform): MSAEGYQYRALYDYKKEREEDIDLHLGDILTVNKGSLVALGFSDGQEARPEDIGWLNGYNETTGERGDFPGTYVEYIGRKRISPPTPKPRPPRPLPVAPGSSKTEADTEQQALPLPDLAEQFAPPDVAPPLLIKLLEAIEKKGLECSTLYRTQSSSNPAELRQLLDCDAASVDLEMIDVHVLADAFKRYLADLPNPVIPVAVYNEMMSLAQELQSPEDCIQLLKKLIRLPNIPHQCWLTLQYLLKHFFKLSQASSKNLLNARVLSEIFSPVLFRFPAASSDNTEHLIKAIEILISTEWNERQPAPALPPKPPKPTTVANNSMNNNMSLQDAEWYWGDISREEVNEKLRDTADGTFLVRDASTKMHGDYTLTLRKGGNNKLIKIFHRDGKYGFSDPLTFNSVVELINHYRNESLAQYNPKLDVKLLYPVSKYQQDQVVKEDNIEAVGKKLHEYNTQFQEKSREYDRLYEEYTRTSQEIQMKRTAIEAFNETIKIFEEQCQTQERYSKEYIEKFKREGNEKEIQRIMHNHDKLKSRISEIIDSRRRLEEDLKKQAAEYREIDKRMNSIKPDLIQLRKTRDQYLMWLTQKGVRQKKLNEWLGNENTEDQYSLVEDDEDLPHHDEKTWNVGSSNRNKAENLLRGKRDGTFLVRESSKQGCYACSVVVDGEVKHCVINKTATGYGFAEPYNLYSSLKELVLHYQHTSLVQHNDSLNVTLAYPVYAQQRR
T1 sequence (P42356 whole entry): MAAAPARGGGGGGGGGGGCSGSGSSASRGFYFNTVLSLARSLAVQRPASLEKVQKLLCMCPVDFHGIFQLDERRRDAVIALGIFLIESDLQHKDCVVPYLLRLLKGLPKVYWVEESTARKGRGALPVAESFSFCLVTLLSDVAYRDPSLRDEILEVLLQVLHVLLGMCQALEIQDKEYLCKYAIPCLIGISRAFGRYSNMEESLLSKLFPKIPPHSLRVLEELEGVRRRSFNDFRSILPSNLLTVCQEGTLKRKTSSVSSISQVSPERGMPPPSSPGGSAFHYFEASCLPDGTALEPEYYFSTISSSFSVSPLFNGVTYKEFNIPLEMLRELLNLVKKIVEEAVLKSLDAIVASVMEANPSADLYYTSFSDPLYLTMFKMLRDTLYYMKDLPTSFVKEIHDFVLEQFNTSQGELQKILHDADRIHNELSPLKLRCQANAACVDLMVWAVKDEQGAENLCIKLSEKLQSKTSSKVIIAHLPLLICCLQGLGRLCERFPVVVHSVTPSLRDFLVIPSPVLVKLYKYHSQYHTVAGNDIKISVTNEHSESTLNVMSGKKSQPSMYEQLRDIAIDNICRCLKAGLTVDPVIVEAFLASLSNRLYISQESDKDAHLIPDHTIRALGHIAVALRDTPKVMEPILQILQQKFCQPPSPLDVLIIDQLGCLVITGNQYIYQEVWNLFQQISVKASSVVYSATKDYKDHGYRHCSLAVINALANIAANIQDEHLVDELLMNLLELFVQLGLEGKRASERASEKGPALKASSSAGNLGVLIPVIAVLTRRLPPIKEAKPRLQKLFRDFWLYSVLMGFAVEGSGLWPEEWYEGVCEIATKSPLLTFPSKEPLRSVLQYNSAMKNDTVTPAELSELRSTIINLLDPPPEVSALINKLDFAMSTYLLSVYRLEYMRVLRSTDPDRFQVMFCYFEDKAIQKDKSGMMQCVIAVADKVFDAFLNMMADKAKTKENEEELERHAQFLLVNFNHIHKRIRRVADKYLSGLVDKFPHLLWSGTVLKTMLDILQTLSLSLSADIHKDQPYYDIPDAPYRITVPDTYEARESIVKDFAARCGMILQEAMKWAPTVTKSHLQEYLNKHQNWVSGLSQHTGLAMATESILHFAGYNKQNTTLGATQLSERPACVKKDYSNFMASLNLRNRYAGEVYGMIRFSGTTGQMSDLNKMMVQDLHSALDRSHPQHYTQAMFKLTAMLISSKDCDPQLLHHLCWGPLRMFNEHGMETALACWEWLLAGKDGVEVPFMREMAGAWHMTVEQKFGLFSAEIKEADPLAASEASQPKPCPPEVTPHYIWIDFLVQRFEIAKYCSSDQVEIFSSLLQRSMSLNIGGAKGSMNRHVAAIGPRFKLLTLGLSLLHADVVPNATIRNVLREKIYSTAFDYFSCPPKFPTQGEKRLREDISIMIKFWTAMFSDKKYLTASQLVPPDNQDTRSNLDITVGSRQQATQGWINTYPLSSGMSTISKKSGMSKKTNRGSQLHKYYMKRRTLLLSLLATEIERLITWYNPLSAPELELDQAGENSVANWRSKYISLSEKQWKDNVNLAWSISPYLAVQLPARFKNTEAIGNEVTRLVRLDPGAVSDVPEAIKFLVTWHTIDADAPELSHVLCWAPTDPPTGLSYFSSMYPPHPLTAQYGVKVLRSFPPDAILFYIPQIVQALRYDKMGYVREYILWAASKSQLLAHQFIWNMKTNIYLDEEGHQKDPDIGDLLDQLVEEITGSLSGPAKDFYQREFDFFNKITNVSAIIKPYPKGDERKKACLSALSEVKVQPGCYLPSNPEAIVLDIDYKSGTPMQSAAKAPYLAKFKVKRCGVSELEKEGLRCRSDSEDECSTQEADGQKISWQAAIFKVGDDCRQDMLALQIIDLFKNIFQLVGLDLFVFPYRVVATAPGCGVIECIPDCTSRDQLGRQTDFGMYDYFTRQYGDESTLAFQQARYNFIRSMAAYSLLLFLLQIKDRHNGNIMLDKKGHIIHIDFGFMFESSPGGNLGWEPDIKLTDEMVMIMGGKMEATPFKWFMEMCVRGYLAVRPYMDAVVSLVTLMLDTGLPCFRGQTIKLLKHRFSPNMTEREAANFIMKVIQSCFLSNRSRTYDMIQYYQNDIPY

Cc1nc(NC(=O)CN)sc1-c1cnc(Cl)c(NS(=O)(=O)c2ccc(C(C)(C)C)cc2)c1 [PI3KD/V-IN-01, 2-amino-N-(5-(5-(4-tert-butylphenylsulfonamido)-6-chloropyridin-3-yl)-4-methylthiazol-2-yl)acetamide]
IC50 (PI4KA): > 10 µM | EC50 (PI3Kβ): > 3 µM | Effect on LC3B puncta [1]: increased LC3B puncta | GI50 (CMK): 2 µM | GI50 (NOMO-1): 2.3 µM | EC50 (OCI-AML-2 [2]): 0.145 µM | inhibition at 1 µM (primary CLL cells): ~50% | Activity of GSK3β and NFκB [3]: not affected | Phosphorylation of 4EBP1 [3]: not inhibited | effect on pAKT(T308, S473), pFOXO1, pPRAS40 and pS6K [3]: inhibition of pAKT(T308, S473) and downstream pFOXO1, pPRAS40 and pS6K | induction of apoptosis (OCI-AML-2 [4]): only a modest induction of apoptosis | cell cycle progression (MEC-2): arrested in the G0/G1 phase | cell cycle progression (OCI-AML-2 [5]): no apparent cell cycle inhibition
